Where two headings read alike, the source gives them in different places.
System: Aβ1-42 production
Experiment: Cellular assay for inhibition of Aβ1-42 production (H4 APP751 SWE clone 8.20)
Assay type: cell-based
Conditions: H4 APP751 SWE clone 8.20 cells, 19 h incubation
Method in brief: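 Cells incubate with compound for 19 h (37 °C, 5% CO2), the plate is briefly spun, and antibody mix is added straight to the wells: Wallac-conjugated 565 against the Aβ42 C-terminal neoepitope and APC-conjugated 26D6 against the Aβ N-terminus. After overnight sealing at 4 °C, signal is counted and IC50 fitted.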

[1] = 19 h, class symbols, read-out: Activity Rating (Aβ42 cellular IC50)
[2] = class symbols, read-out: Activity Rating (Aβ42 cellular IC50)
[3] = 19 h, read-out: Activity Rating (Aβ42 cellular IC50), numeric value

Row | SMILES | IC50 [1] [µM] | other results
1 | CNc1nc(Nc2ccc(-n3cnc(Cl)c3)c(OC)c2)nc2c1CN(C)CC2c1ccccc1 (stereo not drawn) [Example 148A, N2-(4-(4-chloro-1H-imidazol-1-yl)-3-methoxyphenyl)-N4,6-dimethyl-8-phenyl-5,6,7,8-tetrahydropyrido[4,3-d]pyrimidine-2,4-diamine] | 0.0015 to 0.0099 | 
2 | CNc1nc(Nc2ccc(-n3cnc(C)n3)c(F)c2)nc2c1CN(C)CC2c1ccccc1 (stereo not drawn) [Example 149, N2-(3-fluoro-4-(3-methyl-1H-1,2,4-triazol-1-yl)phenyl)-N4,6-dimethyl-8-phenyl-5,6,7,8-tetrahydropyrido[4,3-d]pyrimidine-2,4-diamine] | 0.01 to 0.1 | 
3 | CNc1nc(Nc2ccc(-n3ncnc3C)c(F)c2)nc2c1CN(C)CC2c1ccccc1 (stereo not drawn) [Example 150, N2-(3-fluoro-4-(5-methyl-1H-1,2,4-triazol-1-yl)phenyl)-N4,6-dimethyl-8-phenyl-5,6,7,8-tetrahydropyrido[4,3-d]pyrimidine-2,4-diamine] | 0.01 to 0.1 | 
4 | CCNc1nc(Nc2ccc(-n3cnc(Cl)c3)c(OC)c2)nc2c1CN(C)CC2c1ccccc1 (stereo not drawn) [Example 151, N2-(4-(4-chloro-1H-imidazol-1-yl)-3-methoxyphenyl)-N4-ethyl-6-methyl-8-phenyl-5,6,7,8-tetrahydropyrido[4,3-d]pyrimidine-2,4-diamine] | 0.0015 to 0.0099 | 
5 | CCNc1nc(Nc2ccc(-n3cnc(C)n3)c(F)c2)nc2c1CN(C)CC2c1ccccc1 (stereo not drawn) [Example 152, N4-ethyl-N2-(3-fluoro-4-(3-methyl-1H-1,2,4-triazol-1-yl)phenyl)-6-methyl-8-phenyl-5,6,7,8-tetrahydropyrido[4,3-d]pyrimidine-2,4-diamine] | 0.01 to 0.1 | 
6 | CCNc1nc(Nc2ccc(-n3ncnc3C)c(F)c2)nc2c1CN(C)CC2c1ccccc1 (stereo not drawn) [Example 153, N4-ethyl-N2-(3-fluoro-4-(5-methyl-1H-1,2,4-triazol-1-yl)phenyl)-6-methyl-8-phenyl-5,6,7,8-tetrahydropyrido[4,3-d]pyrimidine-2,4-diamine] | 0.01 to 0.1 | 
7 | CNc1nc(Nc2ccc(-n3cnc(Cl)c3)c(OC)c2)nc2c1CN(S(C)(=O)=O)CC2c1ccc(F)cc1 (stereo not drawn) [Example 154, N2-(4-(4-chloro-1H-imidazol-1-yl)-3-methoxyphenyl)-8-(4-fluorophenyl)-N4-methyl-6-(methylsulfonyl)-5,6,7,8-tetrahydropyrido[4,3-d]pyrimidine-2,4-diamine] |  | IC50 [2]: 0.01 to 0.1 µM
8 | CNc1nc(Nc2ccc(-n3cnc(Cl)c3)c(OC)c2)nc2c1CN(S(C)(=O)=O)CC2c1ccc(F)cc1 (stereo not drawn) [Example 154A, N2-(4-(4-chloro-1H-imidazol-1-yl)-3-methoxyphenyl)-8-(4-fluorophenyl)-N4-methyl-6-(methylsulfonyl)-5,6,7,8-tetrahydropyrido[4,3-d]pyrimidine-2,4-diamine] |  | IC50 [2]: 0.0015 to 0.0099 µM
9 | CCNc1nc(Nc2ccc(-n3cnc(Cl)c3)c(OC)c2)nc2c1CN(S(C)(=O)=O)CC2c1ccc(F)cc1 (stereo not drawn) [Example 155A, N2-(4-(4-chloro-1H-imidazol-1-yl)-3-methoxyphenyl)-N4-ethyl-8-(4-fluorophenyl)-6-(methylsulfonyl)-5,6,7,8-tetrahydropyrido[4,3-d]pyrimidine-2,4-diamine] | 0.0015 to 0.0099 | 
10 | CCNc1nc(Nc2ccc(-n3cnc(C)n3)c(F)c2)nc2c1CN(S(C)(=O)=O)CC2c1ccc(F)cc1 (stereo not drawn) [Example 156, N4-ethyl-N2-(3-fluoro-4-(3-methyl-1H-1,2,4-triazol-1-yl)pheny)-8-(4-fluorophenyl)-6-(methylsulfonyl)-5,6,7,8-tetrahydropyrido[4,3-d]pyrimidine-2,4-diamine] | 0.0015 to 0.0099 | 
11 | CCNc1nc(Nc2ccc(-n3cnc(C)n3)c(F)c2)nc2c1CN(S(C)(=O)=O)CC2c1ccc(F)cc1 (stereo not drawn) [Example 156A, N4-ethyl-N2-(3-fluoro-4-(3-methyl-1H-1,2,4-triazol-1-yl)pheny)-8-(4-fluorophenyl)-6-(methylsulfonyl)-5,6,7,8-tetrahydropyrido[4,3-d]pyrimidine-2,4-diamine] |  | IC50 [3]: 0.0098 µM
12 | CCNc1nc(Nc2ccc(-n3ncnc3C)c(F)c2)nc2c1CN(S(C)(=O)=O)CC2c1ccc(F)cc1 (stereo not drawn) [Example 157, N4-ethyl-N2-(3-fluoro-4-(5-methyl-1H-1,2,4-triazol-1-yl)phenyl)-6-(methylsulfonyl)-8-(4-fluorophenyl)-5,6,7,8-tetrahydropyrido[4,3-d]pyrimidine-2,4-diamine] | 0.01 to 0.1 | 
13 | CCN1Cc2c(nc(Nc3ccc(-n4cnc(Cl)c4)c(OC)c3)nc2N(C)CC)C(c2ccc(F)cc2)C1 (stereo not drawn) [Example 158, N2-(4-(4-chloro-1H-imidazol-1-yl)-3-methoxyphenyl)-N4,6-diethyl-8-(4-fluorophenyl)-N4-methyl-5,6,7,8-tetrahydropyrido[4,3-d]pyrimidine-2,4-diamine] | 0.01 to 0.1 | 
14 | COc1cc(Nc2nc3c(c(N4CC(F)(F)C4)n2)CN(C)CC3c2ccc(F)cc2)ccc1-n1cnc(Cl)c1 (stereo not drawn) [Example 159, N-(4-(4-chloro-1H-imidazol-1-yl)-3-methoxyphenyl)-4-(3,3-difluoroazetidin-1-yl)-8-(4-fluorophenyl)-6-methyl-5,6,7,8-tetrahydropyrido[4,3-d]pyrimidin-2-amine] | 0.01 to 0.1 | 
15 | COc1cc(Nc2nc3c(c(N4CC(F)(F)C4)n2)CN(S(C)(=O)=O)CC3c2ccc(F)cc2)ccc1-n1cnc(Cl)c1 (stereo not drawn) [Example 160, N-(4-(4-chloro-1H-imidazol-1-yl)-3-methoxyphenyl)-4-(3,3-difluoroazetidin-1-yl)-8-(4-fluorophenyl)-6-(methylsulfonyl)-5,6,7,8-tetrahydropyrido[4,3-d]pyrimidin-2-amine] | 0.01 to 0.1 | 
16 | CCN(C)c1nc(Nc2ccc(-n3cnc(Cl)c3)c(OC)c2)nc2c1CNCC2c1ccc(F)cc1 (stereo not drawn) [Example 161, N2-(4-(4-chloro-1H-imidazol-1-yl)-3-methoxyphenyl)-N4-ethyl-8-(4-fluorophenyl)-N4-methyl-5,6,7,8-tetrahydropyrido[4,3-d]pyrimidine-2,4-diamine] | 0.1 to 1 | 
17 | COc1cc(Nc2nc3c(c(N4CC(F)(F)C4)n2)CNCC3c2ccc(F)cc2)ccc1-n1cnc(Cl)c1 (stereo not drawn) [Example 162, N-(4-(4-chloro-1H-imidazol-1-yl)-3-methoxyphenyl)-4-(3,3-difluoroazetidin-1-yl)-8-(4-fluorophenyl)-5,6,7,8-tetrahydropyrido[4,3-d]pyrimidin-2-amine] | 0.01 to 0.1 | 
18 | CNc1nc(Nc2ccc(-n3cnc(Cl)c3)c(OC)c2)nc2c1CN(C)CC2c1ccc(F)cc1 (stereo not drawn) [Example 163A, N2-(4-(4-chloro-1H-imidazol-1-yl)-3-methoxyphenyl)-8-(4-fluorophenyl)-N4,6-dimethyl-5,6,7,8-tetrahydropyrido[4,3-d]pyrimidine-2,4-diamine] | 0.0015 to 0.0099 | 
19 | CCNc1nc(Nc2ccc(-n3cnc(Cl)c3)c(OC)c2)nc2c1CN(C)CC2c1ccc(F)cc1 (stereo not drawn) [Example 164A, N2-(4-(4-chloro-1H-imidazol-1-yl)-3-methoxyphenyl)-N4-ethyl-8-(4-fluorophenyl)-6-methyl-5,6,7,8-tetrahydropyrido[4,3-d]pyrimidine-2,4-diamine] | 0.01 to 0.1 | 
20 | CCN(C)c1nc(Nc2ccc(-n3cnc(Cl)c3)c(OC)c2)nc2c1CN(C)CC2c1ccc(F)cc1 (stereo not drawn) [Example 165, N2-(4-(4-chloro-1H-imidazol-1-yl)-3-methoxyphenyl)-N4-ethyl-8-(4-fluorophenyl)-N4,6-dimethyl-5,6,7,8-tetrahydropyrido[4,3-d]pyrimidine-2,4-diamine] | 0.01 to 0.1 | 
21 | CCN(C)c1nc(Nc2ccc(-n3cnc(Cl)c3)c(OC)c2)nc2c1CN(C)CC2c1ccc(F)cc1 (stereo not drawn) [Example 165B, N2-(4-(4-chloro-1H-imidazol-1-yl)-3-methoxyphenyl)-N4-ethyl-8-(4-fluorophenyl)-N4,6-dimethyl-5,6,7,8-tetrahydropyrido[4,3-d]pyrimidine-2,4-diamine] |  | IC50 [3]: 0.18 µM
22 | CCN(C)c1nc(Nc2ccc(-n3cnc(Cl)c3)c(OC)c2)nc2c1CCNC2c1ccc(F)cc1 (stereo not drawn) [Example 166, N2-(4-(4-chloro-1H-imidazol-1-yl)-3-methoxyphenyl)-N4-ethyl-8-(4-fluorophenyl)-N4-methyl-5,6,7,8-tetrahydropyrido[3,4-d]pyrimidine-2,4-diamine] | 0.1 to 1 | 
23 | COc1ccc(CN2CCc3c(nc(Nc4ccc(-n5cnc(Cl)c5)c(OC)c4)nc3N3CC[C@H](F)C3)C2c2ccc(F)cc2)cc1 (stereo partly drawn) [Example 167A, N-(4-(4-chloro-1H-imidazol-1-yl)-3-methoxyphenyl)-8-(4-fluorophenyl)-4-((S)-3-fluoropyrrolidin-1-yl)-7-(4-methoxybenzyl)-5,6,7,8-tetrahydropyrido[3,4-d]pyrimidin-2-amine] |  | IC50 [3]: 0.026 µM
24 | CCNc1nc(Nc2ccc(-n3cnc(Cl)c3)c(OC)c2)nc2c1CCN(S(C)(=O)=O)C2c1ccc(F)cc1 (stereo not drawn) [Example 168A, N2-(4-(4-chloro-1H-imidazol-1-yl)-3-methoxyphenyl)-N4-ethyl-8-(4-fluorophenyl)-7-(methylsulfonyl)-5,6,7,8-tetrahydropyrido[3,4-d]pyrimidine-2,4-diamine] | 0.0015 to 0.0099 | 
25 | CCNc1nc(Nc2ccc(-n3cnc(Cl)c3)c(OC)c2)nc2c1CCN(CC)C2c1ccc(F)cc1 (stereo not drawn) [Example 169, N2-(4-(4-chloro-1H-imidazol-1-yl)-3-methoxyphenyl)-N4,7-diethyl-8-(4-fluorophenyl)-5,6,7,8-tetrahydropyrido[3,4-d]pyrimidine-2,4-diamine] |  | IC50 [2]: 0.01 to 0.1 µM
26 | CCNc1nc(Nc2ccc(-n3cnc(Cl)c3)c(OC)c2)nc2c1CCN(C(=O)OC)C2c1ccc(F)cc1 (stereo not drawn) [Example 170, methyl 2-(4-(4-chloro-1H-imidazol-1-yl)-3-methoxyphenylamino)-4-(ethylamino)-8-(4-fluorophenyl)-5,6-dihydropyrido[3,4-d]pyrimidine-7(8H)-carboxylate] |  | IC50 [2]: 0.01 to 0.1 µM
27 | CCNc1nc(Nc2ccc(-n3cnc(Cl)c3)c(OC)c2)nc2c1CCN(C(C)=O)C2c1ccc(F)cc1 (stereo not drawn) [Example 171, 1-(2-(4-(4-chloro-1H-imidazol-1-yl)-3-methoxyphenylamino)-4-(ethylamino)-8-(4-fluorophenyl)-5,6-dihydropyrido[3,4-d]pyrimidin-7(8H)-yl)ethanone] |  | IC50 [3]: 0.016 µM

Source: patent US8637525B2, “Compounds for the reduction of beta-amyloid production” (Bristol-Myers Squibb Company, priority 2009, dated 2014)
